According to patent publication US20250034159A1, “INHIBITORS OF EPIDERMAL GROWTH FACTOR RECEPTOR” (ORIC Pharmaceuticals, Inc., priority 2021, published 2025):
Read-outs that look alike come from different tables or passages of the source.

How the values were obtained:
Ba/F3_EGFR WT cells = assay: Biological Activity Assay D: BaF3 cell proliferation assay, EGFR wild-type (BaF3 WT); assay type: cell-based; details: Ba/F3 EGFR, read-out: BaF3 WT IC50
Method: (§1) One frozen vial of cells should be thawed into one T25 flask in 10 mL media. Keep the flask upright in the incubator.
(§2) Method: One frozen vial of cells was thawed into one T25 flask in 10 mL media and the flask was kept upright in the incubator. Cells were split 1:10 every two to three days when cells reached confluency of around 1×10^6 cells/mL. Bravo protocol files were used with Greiner 384-well plates for all steps of compound preparation, cell plating and compound addition. […] 16 μL of DMSO were added (for compounds starting at 20 μM) or 28 μL DMSO (for compounds starting at 5 μM) to 96-well V-bottom polypropylene plate: wells 1A-1H (8 compounds/plate). […] 20 μL DMSO were added to the remainder of the wells (columns 2-12) in the 96-well V-bottom plate. A Bravo liquid handler was used to make 1:3 serial dilutions from columns 1 to 11 (12 remains as DMSO only) to prepare the DMSO dilution plate. 144 μL media were added to each well of a new 96-well V-bottom polypropylene plate to prepare the intermediate dilution plate. A Bravo or 96-head Integra liquid handler was used to add and mix 6 μL of test compound from the DMSO dilution plate to the intermediate dilution plate. (1:25 dilution). Cells were transferred from a flask into a 50 mL conical, vortex gently and the number of cells were counted, with a target cell number of about 1×10^6 cells per mL. The cells were diluted in culture medium in 50 mL conical or T25 flask, and the cell suspension was added to BRAVO reservoir and then use Bravo protocol to plate the appropriate number of cells shown below in 36 μl of medium per well as follows: Ba/F3-WT-EGFR 2000 cells per well of a 384 well plate; Ba/F3-LR/CS-EGFR 2000 cells per well of a 384 well plate; and Ba/F3-d19/CS-EGFR 1500 cells per well of a 384 well plate. An extra 10 mL of dead volume was utilized in each reservoir.
(§3) Using a Bravo liquid handler, 4 μl of test compound solution was added per well from the intermediate dilution plate to plated cells (1:10 dilution from the intermediate plate, final compound dilution 1:250 and final DMSO concentration per well is 0.4%). Using the 96 BRAVO Head, 25 μl were aspirated from the intermediate dilution plate and 4 μl each were dispensed into 4 wells (square pattern) in the 384-well plate. Any remaining test compound is dispensed into a secondary plate to prevent cross contamination of cells in the intermediate compound plate. After the compounds were added, the plate was shaken at 600 rpm gently for 60 see, and the plates were incubated in a tissue culture incubator, 37° C., 5% CO2, for ˜ 72 hours. After incubation, CTG 2.0 reagent was allowed to equilibrate to room temperature (˜3 hours) and cells to reach room temperature (˜10-15 minutes) and reagent was added to cells (40 μL/well) using a Bravo liquid handler. The plates were shaken to allow proper mixing (˜5 min) and let settle for 10 minutes and were read on Tecan plate reader using the appropriate luminescence method. Data from plate reader was transferred to an excel file and entered directly into Dotmatics using the protocols under EGFR Project/Cell Proliferation/named: “BaF3_EGFRwt_CP”, “BaF3_EGFR_d19/CS_CP”, “BaF3_EGFR_LR/CS_CP”. Curves were fit with a 4-parameter model and IC50s calculated by the Dotmatics software. DMSO wells were averaged to define the high control (100% growth). The average of the highest concentration of the positive control compound (afatinib) was used to define the 0% growth and used to lock the bottom of the curves. The tops of the curves were not fixed.

BaF3_EGFR d19/CS cells = assay: Biological Activity Assay D: BaF3 cell proliferation assay, EGFR exon 19 deletion/C797S (BaF3 d19/CS); assay type: cell-based; details: Ba/F3 EGFR, read-out: BaF3 d19/CS IC50
Method: as §1, §2, §3

BaF3_EGFR LR/CS cells = assay: Biological Activity Assay D: BaF3 cell proliferation assay, EGFR L858R/C797S mutant (BaF3 LR/CS); assay type: cell-based; details: Ba/F3 EGFR, read-out: BaF3 LR/CS IC50
Method: as §1, §2, §3

[1] = target: recombinant human EGFR exon 19 deletion/C797S double mutant protein (Homo sapiens (Human), UniProt P00533, C797S/DEL746-750); assay: Biological Activity Assay C: biochemical assay against EGFR exon 19 deletion/C797S protein (EGFR d19/CS)
Method: In Row A of a 384-well polypropylene plate, was added 48 μL of DMSO. In wells A1 and A24, were added 12 μL of DMSO. […] To a well in Row A were added 12 μL of each 10 mM test compound stock (100% DMSO). […] The final intermediate dilution plate contained 4×16-point compound serial dilutions in assay buffer. The DMSO concentration was 10%. The intermediate compound dilution plate was transferred to the Bravo and the “5 uL dispense into ARP.pro” protocol was run. To the black low volume assay ready plates, were added 5 μL of 40 uM Phosphosens peptide sensor/4 mM ATP working solution to each well. […] To column 24, was added 10 μL of assay buffer. The final DMSO concentration was 2.5%. […] The plates were sealed with the TopSeal-A Plus plate seals. […] Set for 90 cycles with 120 second interval. […] The slope of each curve was constructed using Dotmatics in each well, and each IC50s was calculated using a 4-parameter fit model.

[2] = Ba/F3_EGFR WT cells, ~72 hours, CellTiter-Glo
[3] = BaF3_EGFR d19/CS cells, ~72 hours, CellTiter-Glo
[4] = BaF3_EGFR LR/CS cells, ~72 hours, CellTiter-Glo

Sequence of recombinant human EGFR exon 19 deletion/C797S double mutant protein (P00533 other isoform, or with tags, fused parts or gaps C797S/del 1-668/del 746-750 limits assumed): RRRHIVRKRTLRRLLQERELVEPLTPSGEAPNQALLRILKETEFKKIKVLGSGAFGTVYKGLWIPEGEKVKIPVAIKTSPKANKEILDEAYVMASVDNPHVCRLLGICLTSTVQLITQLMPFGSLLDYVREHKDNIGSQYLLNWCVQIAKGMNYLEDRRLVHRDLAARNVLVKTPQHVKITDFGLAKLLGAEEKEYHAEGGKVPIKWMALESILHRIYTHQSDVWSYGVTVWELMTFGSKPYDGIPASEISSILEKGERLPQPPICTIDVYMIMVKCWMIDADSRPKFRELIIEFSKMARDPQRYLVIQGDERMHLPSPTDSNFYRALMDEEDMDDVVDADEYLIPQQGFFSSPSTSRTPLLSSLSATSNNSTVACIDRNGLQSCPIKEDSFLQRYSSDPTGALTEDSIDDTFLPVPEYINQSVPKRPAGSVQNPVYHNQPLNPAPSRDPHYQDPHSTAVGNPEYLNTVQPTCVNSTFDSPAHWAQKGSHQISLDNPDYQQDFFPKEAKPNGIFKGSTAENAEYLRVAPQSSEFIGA

Compound	IC50 (Ba/F3_EGFR WT cells; [2]) [nM]	IC50 (BaF3_EGFR d19/CS cells; [3]) [nM]	IC50 (BaF3_EGFR LR/CS cells; [4]) [nM]	IC50 [1] [nM]	IC50 (Ba/F3_EGFR WT cells; 72 h) [nM]	IC50 (BaF3_EGFR d19/CS cells; 72 h) [nM]	IC50 (BaF3_EGFR LR/CS cells; 72 h) [nM]
Fc1ccc(-c2nn(C3CCCOC3)cc2-c2ncnc3oc(-c4ccccc4)cc23)cc1 (racemic) [Example 122, 4-(3-(4-Fluorophenyl)-1-(tetrahydro-2H-pyran-3-yl)-1H-pyrazol-4-yl)-6-phenylfuro[2,3-d]pyrimidine]	1850	114	68	0.55	–	–	–
Fc1ccc(-c2nn([C@H]3CCOC[C@@H]3F)cc2-c2ncnc3oc(-c4ccccc4)cc23)cc1 (racemic) [Example 151, 4-[1-(3-fluorooxan-4-yl)-3-(4-fluorophenyl)-1H-pyrazol-4-yl]-6-phenylfuro[2,3-d]pyrimidine]	1870	68.1	16.1	1.45	–	–	–
Fc1ccc(-c2nn([C@H]3CCOC[C@H]3F)cc2-c2ncnc3oc(-c4ccccc4)cc23)cc1 (racemic) [Example 184, 4-[1-(3-fluorooxan-4-yl)-3-(4-fluorophenyl)-1H-pyrazol-4-yl]-6-phenylfuro[2,3-d]pyrimidine]	1770	57.6	30.7	0.26	–	–	–
CS(=O)(=O)[C@@H]1CC[C@H](n2cc(-c3ncnc4oc(-c5ccccc5)cc34)c(-c3ccc(F)cc3)n2)C1 (racemic) [Example 185, 4-{3-(4-fluorophenyl)-1-[3-(methanesulfonyl)cyclopentyl]-1H-pyrazol-4-yl}-6-phenylfuro[2,3-d]pyrimidine]	6980	395	256	1.43	–	–	–
C[C@@H]1OCC[C@H]1n1cc(-c2ncnc3oc(-c4ccccc4)cc23)c(-c2ccc(F)cc2)n1 (racemic) [Example 199, 2,5-anhydro-1,3,4-trideoxy-3-[3-(4-fluorophenyl)-4-(6-phenylfuro[2,3-d]pyrimidin-4-yl)-1H-pyrazol-1-yl]pentitol]	3340	294	85.4	0.92	–	–	–
CC1(C)CC(n2cc(-c3ncnc4oc(-c5ccccc5)cc34)c(-c3ccc(F)cc3)n2)CO1 (racemic) [Example 227, 4-[1-(5,5-dimethyloxolan-3-yl)-3-(4-fluorophenyl)-1H-pyrazol-4-yl]-6-phenylfuro[2,3-d]pyrimidine]	2670	42.3	53.3	0.63	–	–	–
Fc1ccc(-c2nn([C@@H]3CCCOC3)cc2-c2ncnc3oc(-c4ccccc4)cc23)cc1 (single isomer, unassigned) [Example 136]	3050	127	81.5	0.97	–	–	–
Fc1ccc(-n2nccc2-c2ccnc3[nH]c(-c4ccccc4)cc23)cc1 [Example 1, 4-[1-(4-fluorophenyl)-1H-pyrazol-5-yl]-2-phenyl-1H-pyrrolo[2,3-b]pyridine]	2570	211	349	–	–	–	–
OCCCn1cc(-c2ccnc3cc(-c4ccccc4)[nH]c23)c(-c2ccc(F)cc2)n1 [Example 7, 3-[3-(4-Fluorophenyl)-4-(2-phenyl-1H-pyrrolo[3,2-b]pyridin-7-yl)-1H-pyrazol-1-yl]propan-1-ol]	4710	508	694	–	–	–	–
[2H]C([2H])([2H])n1cc(-c2ncnc3oc(-c4ccccc4)cc23)c(-c2ccc(F)cc2)n1 [Example 48, 4-[3-(4-Fluorophenyl)-1-(2H3)methyl-1H-pyrazol-4-yl]-6-phenylfuro[2,3-d]pyrimidine]	–	–	–	–	2210	47.9	60.4
Cn1cc(-c2ncnc3oc(-c4ccccc4)cc23)c(-c2ccc(F)cc2)n1 [Example 63, 4-[3-(4-Fluorophenyl)-1-methyl-1H-pyrazol-4-yl]-6-phenylfuro[2,3-d]pyrimidine]	–	–	–	–	1270	48.5	35.4
O=S1(=O)CCC(n2cc(-c3ncnc4oc(-c5ccccc5)cc34)c(-c3ccc(F)cc3)n2)CC1 [Example 83, 4-[3-(4-fluorophenyl)-4-(6-phenylfuro[2,3-d]pyrimidin-4-yl)-1H-pyrazol-1-yl]-1λ6-thiane-1,1-dione]	> 20000	640	529	–	–	–	–

The next lines start with results.

IC50 (Ba/F3_EGFR WT cells; [2]) [nM]	IC50 (BaF3_EGFR d19/CS cells; [3]) [nM]	IC50 (BaF3_EGFR LR/CS cells; [4]) [nM]	IC50 [1] [nM]	Compound	IC50 (Ba/F3_EGFR WT cells; 72 h) [nM]	IC50 (BaF3_EGFR d19/CS cells; 72 h) [nM]	IC50 (BaF3_EGFR LR/CS cells; 72 h) [nM]
741	52.1	11.8	0.21	O=S1(=O)CCC[C@H](Cn2cc(-c3ncnc4oc(-c5ccccc5)cc34)c(-c3ccc(F)cc3)n2)C1 (single isomer, unassigned) [Example 125]	–	–	–
720	58.2	14.6	0.18	O=S1(=O)CCC[C@@H](Cn2cc(-c3ncnc4oc(-c5ccccc5)cc34)c(-c3ccc(F)cc3)n2)C1 (single isomer, unassigned) [Example 126]	–	–	–
1740	125	105	0.41	CC(=O)N1CC[C@@H](n2cc(-c3ncnc4oc(-c5ccccc5)cc34)c(-c3ccc(F)cc3)n2)C1 (single isomer, unassigned) [Example 128]	–	–	–
1610	107	66.6	0.2	CC(=O)N1CC[C@H](n2cc(-c3ncnc4oc(-c5ccccc5)cc34)c(-c3ccc(F)cc3)n2)C1 (single isomer, unassigned) [Example 129]	–	–	–
724	104	89.5	–	OCCCc1nc(-c2ccnc3[nH]c(-c4ccccc4)cc23)n(-c2ccc(F)cc2)n1 [Example 2, 3-[1-(4-Fluorophenyl)-5-(2-phenyl-1H-pyrrolo[2,3-b]pyridin-4-yl)-1H-1,2,4-triazol-3-yl]propan-1-ol]	–	–	–
1610	89.6	33.6	–	Fc1ccc(-c2nn(CCOC(F)(F)F)cc2-c2ncnc3oc(-c4ccccc4)cc23)cc1 [Example 144, 4-{3-(4-Fluorophenyl)-1-[2-(trifluoromethoxy)ethyl]-1H-pyrazol-4-yl}-6-phenylfuro[2,3-d]pyrimidine]	–	–	–
1590	40.8	15.2	–	Fc1ccc(-c2nn(CCC(F)F)cc2-c2ccnc3oc(-c4ccccc4)cc23)cc1 [Example 157, 4-[1-(3,3-difluoropropyl)-3-(4-fluorophenyl)-1H-pyrazol-4-yl]-2-phenylfuro[2,3-b]pyridine]	–	–	–
1590	56.4	42	–	O=S1(=O)CC(n2cc(-c3ncnc4oc(C5=CCN(S(=O)(=O)C6CC6)CC5)cc34)c(-c3ccc(F)cc3)n2)C1 [Example 177, 3-[4-{6-[1-(cyclopropanesulfonyl)-1,2,3,6-tetrahydropyridin-4-yl]furo[2,3-d]pyrimidin-4-yl}-3-(4-fluorophenyl)-1H-pyrazol-1-yl]-1λ6-thietane-1,1-dione]	–	–	–
